According to article PMC10366102, “Dose escalation and expansion cohorts in patients with advanced breast cancer in a Phase I study of the CDK7-inhibitor samuraciclib” (Nature Communications, 2023):

Columns and labels:
[1] = tested on: patients with locally advanced and/or metastatic TNBC; conditions: both, human, in vivo
Description: A single arm expansion was conducted to refine the safety, tolerability, PK, and pharmacodynamic profiles of samuraciclib monotherapy (360 mg OD) in male or female patients with advanced TNBC. Patients with histological, radiological or cytological confirmation of metastasis or locally advanced TNBC not considered to be appropriate for further standard treatment, who had received at least 1 line of systemic anti-cancer therapy, and measurable disease according to the RECIST V1.1, were eligible.
Patients underwent regular safety monitoring and 8-week scans reported using RECIST V1.1.
Module 1B-1 was a cohort expansion to explore the safety, tolerability, PK and pharmacodynamic effects, and anti-tumor activity of samuraciclib when given as monotherapy to patients with advanced TNBC; participants were treated at a starting dose of 360 mg once daily (OD). The initial sample size was to be a maximum of 50 participants, of whom approximately 30 participants were to receive the CT7001 dosing regimen which was declared as the RP2D.
Module 1B-1 included an interim efficacy analysis when 15 patients in the RP2D Population were evaluable for efficacy assessments. The Module 1B-1 TNBC expansion phase was designed using a 2-stage design. The null hypothesis for the ORR was 10% and this was tested against an alternative […]
patients were to be recruited, and the […]. Otherwise, recruitment was to continue until up to a total of 30 evaluable patients were recruited and if ≥6/30 (20%) responses were observed, across both stages of the study, the null hypothesis was to be rejected. At the timepoint for the interim efficacy assessment, the requirement of 2 or more participants achieving a Response Evaluation Criteria in Solid Tumors (RECIST) PR had not been met, with only 1 participant in the first 15 evaluable participants achieving a PR. However, 8 out of 15 evaluable participants achieved SD, with 4 participants being treated for at least 16 weeks, which in this aggressive tumor type is of significant clinical note. Following discussion with the SRC it was agreed that further evaluable participants would be recruited into this expansion study.
The schedule of assessments for this study is provided in Supplementary Table 3. […]
Duration of response (DoR) was defined as the time from documentation of tumor response to disease progression. Progression-free survival (PFS) was […]
cause, whichever occurred first. Efficacy results were summarized descriptively and Kaplan -Meier plots provided where appropriate. […]
received at least 1 dose of samuraciclib). These were summarized by Medical Dictionary for Regulatory […]
adverse events (SAEs) were analyzed and reported separately. Details of any deaths were listed. All […]
were listed individually by patient and summarized descriptively. For urinalysis parameters, any […]
(§1) positive. Abnormal physical examina tion findings were listed.

[2] = tested on: patients with advanced malignancies; experiment: Safety pooled across study modules; type: in vivo
Description: These were summarized by Medical Dictionary for Regulatory
adverse events (SAEs) were analyzed and reported separately. Details of any deaths were listed. All
were listed individually by patient and summarized descriptively. For urinalysis parameters, any
as §1

[3] = set-up: method as in ref IB; conditions: ref IB, cited from earlier work
CDK7 = conditions: cited from earlier work
[4] = Module 1 (both parts) and Module 2A
[5] = as of 16 November 2020, 115 patients

SMILES: CC(C)c1cnn2c(NCc3ccccc3)cc(NC[C@H]3CCNC[C@@H]3O)nc12 [samuraciclib, Samuraciclib]
- ALT increased; All AEs [1]: 0 patients (%)
- ALT increased; Grade ≥3 [1]: 0 patients (%)
- AST increased; All AEs [1]: 0 patients (%)
- AST increased; Grade ≥3 [1]: 0 patients (%)
- Abdominal pain upper; All AEs [1]: 0 patients (%)
- Abdominal pain upper; Grade ≥3 [1]: 0 patients (%)
- Abdominal pain; All AEs [1]: 6 (26.1) patients (%)
- Abdominal pain; Grade ≥3 [1]: 0 patients (%)
- Anemia; All AEs [1]: 0 patients (%)
- Anemia; Grade ≥3 [1]: 1 (4.3) patients (%)
- Any treatment-emergent AE; All AEs [1]: 23 (100.0) patients (%)
- Any treatment-emergent AE; Grade ≥3 [1]: 10 (43.5) patients (%)
- Back pain; All AEs [1]: 0 patients (%)
- Back pain; Grade ≥3 [1]: 0 patients (%)
- Constipation; All AEs [1]: 7 (30.4) patients (%)
- Constipation; Grade ≥3 [1]: 0 patients (%)
- Cough; All AEs [1]: 3 (13.0) patients (%)
- Cough; Grade ≥3 [1]: 0 patients (%)
- Decreased appetite; All AEs [1]: 3 (13.0) patients (%)
- Decreased appetite; Grade ≥3 [1]: 0 patients (%)
- Diarrhea; All AEs [1]: 21 (91.3) patients (%)
- Diarrhea; Grade ≥3 [1]: 3 (13.0) patients (%)
- Discontinued samuraciclib due to related AEs [1]: 4.3%
- Dizziness; All AEs [1]: 0 patients (%)
- Dizziness; Grade ≥3 [1]: 0 patients (%)
- Dysgeusia; All AEs [1]: 0 patients (%)
- Dysgeusia; Grade ≥3 [1]: 0 patients (%)
- Dysphagia; All AEs [1]: 0 patients (%)
- Dysphagia; Grade ≥3 [1]: 0 patients (%)
- Dyspnea; All AEs [1]: 0 patients (%)
- Dyspnea; Grade ≥3 [1]: 0 patients (%)
- Fatigue; All AEs [1]: 11 (47.8) patients (%)
- Fatigue; Grade ≥3 [1]: 1 (4.3) patients (%)
- Headache; All AEs [1]: 0 patients (%)
- Headache; Grade ≥3 [1]: 0 patients (%)
- Hyperglycemia; All AEs [1]: 0 patients (%)
- Hyperglycemia; Grade ≥3 [1]: 0 patients (%)
- Hypocalcaemia; All AEs [1]: 0 patients (%)
- Hypocalcaemia; Grade ≥3 [1]: 0 patients (%)
- Hypokalaemia; All AEs [1]: 0 patients (%)
- Hypokalaemia; Grade ≥3 [1]: 0 patients (%)
- Nausea; All AEs [1]: 22 (95.7) patients (%)
- Nausea; Grade ≥3 [1]: 1 (4.3) patients (%)
- Rash; All AEs [1]: 0 patients (%)
- Rash; Grade ≥3 [1]: 0 patients (%)
- Stomatitis; All AEs [1]: 3 (13.0) patients (%)
- Stomatitis; Grade ≥3 [1]: 1 (4.3) patients (%)
- Taste disorder; All AEs [1]: 0 patients (%)
- Taste disorder; Grade ≥3 [1]: 0 patients (%)
- Upper respiratory tract infection; All AEs [1]: 3 (13.0) patients (%)
- Upper respiratory tract infection; Grade ≥3 [1]: 0 patients (%)
- Urinary tract infection; All AEs [1]: 0 patients (%)
- Urinary tract infection; Grade ≥3 [1]: 0 patients (%)
- Vomiting; All AEs [1]: 14 (60.9) patients (%)
- Vomiting; Grade ≥3 [1]: 2 (8.7) patients (%)
- Weight decreased; All AEs [1]: 0 patients (%)
- Weight decreased; Grade ≥3 [1]: 0 patients (%)
- Events of Grade 4 thrombocytopenia ([2]; 1 at 180mg BID and 1 at 360mg OD): 2 events
- Events of Grade 1 platelet count decreased ([2]; 1 at 240mg OD and 2 at 360mg): 3 events
- Patients with at least one AE considered related to samuraciclib ([2]; 96/98 patients, Modules 1A, 1B-1, 2A): 98.0%
- Events of neutropenia/white blood cell count decreased ([2]; Grade 1 at 360mg OD and 180mg BID): 2 events
- Deaths considered related to samuraciclib treatment [2, 4]: None
- Patients who died following an AE [2, 4]: 5 patients
- SAEs considered related to study treatment [2, 4]: 6
- Serious adverse events (not including deaths) [2, 4]: 27 patients
- Recovery of platelets after stopping samuraciclib ([2]; Module 1B-1 and Module 2A): ≤ 28 days
- Patients with diarrhoea, nausea and vomiting ([2]; across dose levels, largely Grade 1, as of 16 November 2020): more than 75%
- Events of anaemia [2, 5]: 16 events
- Events of increased ALT [2, 5]: 14 events
- Events of increased AST [2, 5]: 16 events
- Platelet related AEs [2, 5]: 13
- Events of Grade 1 thrombocytopenia ([2]; at 360mg OD): 4 events
- Events of Grade 2 platelet count decreased ([2]; at 360mg OD): 1 event
- Events of Grade 2 thrombocytopenia ([2]; at 360mg OD): 2 events
- Events of Grade 3 thrombocytopenia ([2]; at 360mg OD): 1 event
- Thrombocytopenia reported as Grade ≥4 ([2]; discussion): 3 patients
- Oral bioavailability ([3]; rat): good oral bioavailability
- Apparent elimination half-life (T½) ([3]; rats): 4.8 h
- Plasma clearance ([3]; rats): high
- Volume of distribution ([3]; rats): high volume of distribution
- Selectivity over the next most sensitive kinase (CDK7): 17 fold
